# According to PMC5960717 (Frontiers in Microbiology, 2018):
# T1: ScAlt2 (Saccharomyces cerevisiae, UniProt P52892)
# T1 construct: gene ALT2; N-terminal His-tag (pET-28a), E. coli Rosetta 2 (DE3), 4°C expression; forward primer ATGACAATGACACACCAACAGG (MTMTHQQ); theoretical monomer 58 kDa, SEC 127 kDa, dimer
# T1 sequence (P52892 1-507): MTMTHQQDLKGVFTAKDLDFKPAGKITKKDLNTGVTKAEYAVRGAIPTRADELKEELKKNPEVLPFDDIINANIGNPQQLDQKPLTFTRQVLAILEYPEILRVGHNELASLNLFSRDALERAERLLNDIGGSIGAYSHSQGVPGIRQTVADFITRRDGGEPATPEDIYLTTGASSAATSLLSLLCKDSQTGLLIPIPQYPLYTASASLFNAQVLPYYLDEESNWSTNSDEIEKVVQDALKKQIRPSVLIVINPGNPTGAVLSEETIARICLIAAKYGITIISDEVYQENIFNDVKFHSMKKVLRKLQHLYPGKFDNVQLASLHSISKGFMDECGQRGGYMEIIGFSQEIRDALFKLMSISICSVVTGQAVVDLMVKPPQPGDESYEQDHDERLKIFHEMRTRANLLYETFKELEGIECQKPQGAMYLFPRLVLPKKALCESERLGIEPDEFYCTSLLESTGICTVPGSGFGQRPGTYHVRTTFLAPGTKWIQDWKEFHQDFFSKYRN
# T2: ScAlt1 (Saccharomyces cerevisiae, UniProt P52893)
# T2 construct: gene ALT1; N-terminal His-tag (pET-28a), E. coli Rosetta 2 (DE3); theoretical monomer 61 kDa, SEC 147 kDa, dimer
# T2 sequence (P52893 81-592): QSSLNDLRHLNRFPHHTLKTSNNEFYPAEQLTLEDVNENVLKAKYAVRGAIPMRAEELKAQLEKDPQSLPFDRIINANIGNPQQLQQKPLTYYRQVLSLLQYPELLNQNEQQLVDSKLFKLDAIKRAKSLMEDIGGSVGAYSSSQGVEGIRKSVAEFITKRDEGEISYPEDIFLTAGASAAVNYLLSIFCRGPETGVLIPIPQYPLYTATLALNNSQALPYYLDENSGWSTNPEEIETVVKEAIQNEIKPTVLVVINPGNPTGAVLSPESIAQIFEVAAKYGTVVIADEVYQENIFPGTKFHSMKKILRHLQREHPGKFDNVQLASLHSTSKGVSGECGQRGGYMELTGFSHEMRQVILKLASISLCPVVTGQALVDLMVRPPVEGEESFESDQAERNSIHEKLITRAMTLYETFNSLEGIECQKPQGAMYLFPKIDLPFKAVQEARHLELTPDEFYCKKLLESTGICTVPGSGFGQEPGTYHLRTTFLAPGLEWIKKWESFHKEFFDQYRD
# B1: ScAlt1 (Saccharomyces cerevisiae alanine transaminase), recombinant, without the mitochondrial localization sequence (enzyme, S. cerevisiae, UniProt P52893 65-592, looked up)
# chain: SSSWIVAQNHRRSLSGQSSLNDLRHLNRFPHHTLKTSNNEFYPAEQLTLEDVNENVLKAKYAVRGAIPMRAEELKAQLEKDPQSLPFDRIINANIGNPQQLQQKPLTYYRQVLSLLQYPELLNQNEQQLVDSKLFKLDAIKRAKSLMEDIGGSVGAYSSSQGVEGIRKSVAEFITKRDEGEISYPEDIFLTAGASAAVNYLLSIFCRGPETGVLIPIPQYPLYTATLALNNSQALPYYLDENSGWSTNPEEIETVVKEAIQNEIKPTVLVVINPGNPTGAVLSPESIAQIFEVAAKYGTVVIADEVYQENIFPGTKFHSMKKILRHLQREHPGKFDNVQLASLHSTSKGVSGECGQRGGYMELTGFSHEMRQVILKLASISLCPVVTGQALVDLMVRPPVEGEESFESDQAERNSIHEKLITRAMTLYETFNSLEGIECQKPQGAMYLFPKIDLPFKAVQEARHLELTPDEFYCKKLLESTGICTVPGSGFGQEPGTYHLRTTFLAPGLEWIKKWESFHKEFFDQYRD
# notes: ScAlt1, alanine transaminase of S. cerevisiae, amplified from genomic DNA of strain CLA1; no residue limits are stated; the forward primer (CATATGCAATCTTCGCTAAACGACCTGC) places the start at Met-QSSLNDL; the reverse primer appears to lie after the stop codon; theoretical monomer mass printed as 61 kDa; The start of the construct can be worked out from the printed forward primer …
# B2: ScAlt1 (Saccharomyces cerevisiae S288C) (protein)
# chain: T2 sequence (P52893 81-592)
# notes: N-terminal His-tag (pET-28a), E. coli Rosetta 2 (DE3); theoretical monomer 61 kDa, SEC 147 kDa, dimer
# B3: ScAlt2 (Saccharomyces cerevisiae presumed alanine transaminase paralogue), recombinant (enzyme, S. cerevisiae, UniProt P52892 1-507, looked up)
# chain: T1 sequence (P52892 1-507)
# notes: ScAlt2 of S. cerevisiae, amplified from genomic DNA of strain CLA1; the forward primer starts at ATGACAATGACACACCAACAGG (MTMTHQQ) and the reverse primer holds the stop codon (TCA ATT ACG ATA ...); theoretical monomer mass printed as 58 kDa; source: E. coli Rosetta 2 (DE3), pET-28a(+), purified (Ni-NTA)
# Tests used:
# ScAlt2 = biological target: T1, ScAlt2; experiment: UV-visible absorption of Schiff base ([…] nm), NaBH4 reduction; assay type: binding; settings: covalent (reversible internal Schiff base, ketoenamine); 50 mM K2HPO4, 4 mM MgCl2, pH 7.5, 100 μM PLP
# ScAlt1 [1] = biological target: T2, ScAlt1; experiment: UV-visible absorption of Schiff base ([…]-335 and […] nm), NaBH4 reduction; assay type: binding; settings: covalent (reversible internal Schiff base, enolimine and ketoenamine); 50 mM K2HPO4, 4 mM MgCl2, pH 7.5, 100 μM PLP
# ScAlt1 [2] = biological target: T2, ScAlt1; experiment: intrinsic fluorescence titration ([…] nm); assay type: binding
# ScAlt1 [3] = biological target: T2, ScAlt1; experiment: UV-visible shift, external Schiff base ([…] nm); assay type: binding; settings: 50 mM KH2PO4, 4 mM MgCl2, PLP, covalent
# [4] = biological target: the molecule itself; experiment: SEC; Superose 6 10/300 GL on an Akta FPLC; mobile phase 50 mM K2HPO4, 4 mM Mg2Cl, pH 7.5; calibrated with Bio-Rad molecular weight standards
# purified protein [5] = substrate: C[C@H](N)C(=O)O; experiment: purified protein; settings: varied alanine 2-15 mM and α-ketoglutarate 0.05-10 mM, 40 μM PLP, pH 7.5, 25°C, ping-pong, Ka here = Michaelis constant
# purified protein [6] = substrate: O=C(O)CCC(=O)C(=O)O; experiment: purified protein; assay type: biochemical, Saccharomyces cerevisiae; settings: varied alanine 2-15 mM and α-ketoglutarate 0.05-10 mM, 40 μM PLP, pH 7.5, 25°C, ping-pong, Ka here = Michaelis constant, co-substrate alanine
# [7] = 1 μl of 81 mM stock added to 10 μl protein
molecule,measurement,setting,value
Cc1ncc(COP(=O)(O)O)c(C=O)c1O [PLP],"UV-visible absorption of Schiff base (420 nm), NaBH4 reduction",ScAlt2,"both, ScAlt1 and ScAlt2 have PLP attached through a Schiff base"
same,"UV-visible absorption of Schiff base (330-335 and 420 nm), NaBH4 reduction",ScAlt1 [1],"both, ScAlt1 and ScAlt2 have PLP attached through a Schiff base"
C[C@H](N)C(=O)O [alanine],Kd,ScAlt1 [2],1 ± 0.1 mM
N[C@@H](CC(=O)O)C(=O)O [aspartic acid],"UV-visible shift, external Schiff base (325 nm)",ScAlt1 [3]; [7],"ScAlt1 could form external Schiff base with glutamate, serine, cysteine, histidine, and aspartic acid"
N[C@@H](CS)C(=O)O [cysteine],"UV-visible shift, external Schiff base (325 nm)",ScAlt1 [3]; 1 μl of 238 mM stock added to 10 μl protein,"ScAlt1 could form external Schiff base with glutamate, serine, cysteine, histidine, and aspartic acid"
N[C@@H](CCC(=O)O)C(=O)O [glutamate],"UV-visible shift, external Schiff base (325 nm)",ScAlt1 [3]; [7],"ScAlt1 could form external Schiff base with glutamate, serine, cysteine, histidine, and aspartic acid"
N[C@@H](Cc1cnc[nH]1)C(=O)O [histidine],"UV-visible shift, external Schiff base (325 nm)",ScAlt1 [3]; 1 μl of 20 mM stock added to 10 μl protein,"ScAlt1 could form external Schiff base with glutamate, serine, cysteine, histidine, and aspartic acid"
N[C@@H](CO)C(=O)O [serine],"UV-visible shift, external Schiff base (325 nm)",ScAlt1 [3]; 1 μl of 23 mM stock added to 10 μl protein,"ScAlt1 could form external Schiff base with glutamate, serine, cysteine, histidine, and aspartic acid"
B1,stoichiometry N,[4],2
B2,Km,purified protein [5],10.39 ( ± 1.12) mM
same,kcat,purified protein [5],698 s⁻¹
same,Km,purified protein [6],0.67 ( ± 0.06) mM
same,kcat,purified protein [6],698 s⁻¹
B3,stoichiometry N,[4],2
